# According to ChEMBL document CHEMBL1201862, “PubChem BioAssay data set” (2004):
#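 Cultured in 96-well plates, cells were exposed to test compound for 48 hours across five concentrations. GI50: concentration for 50% inhibition of growth.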 Calls of active or inactive are those of the source. Rule as the data show it: active = GI50 up to about 1.1 µM and inactive = higher.
# Experiments:
# Test in all cases: NCI anticancer screen, dose series, 48 h
# HOP-62 = tested on: HOP-62
# SF-268 = tested on: SF-268
# CCRF-CEM = tested on: CCRF-CEM
# OVCAR-4 = tested on: OVCAR-4
# 786-0 = tested on: 786-0
# CAKI-1 = tested on: CAKI-1
# NCI-H226 = tested on: NCI-H226
# PC-3 = tested on: PC-3
# COLO 205 = tested on: COLO 205
# UACC-62 = tested on: UACC-62
# NCI-H522 = tested on: NCI-H522
# HCT-116 = tested on: HCT-116
# SK-MEL-28 = tested on: SK-MEL-28
# SW-620 = tested on: SW-620
# NCI-H460 = tested on: NCI-H460
# MOLT-4 = tested on: MOLT-4
# UO-31 = tested on: UO-31
# IGROV-1 = tested on: IGROV-1
# NCI-H23 = tested on: NCI-H23
# BT-549 = tested on: BT-549
# SK-MEL-2 = tested on: SK-MEL-2
# OVCAR-3 = tested on: OVCAR-3
# MDA-MB-435 = tested on: MDA-MB-435
# KM12 = tested on: KM12
# OVCAR-8 = tested on: OVCAR-8
# UACC-257 = tested on: UACC-257
# OVCAR-5 = tested on: OVCAR-5
# ACHN = tested on: ACHN
# A498 = tested on: A498
# LOX IMVI = tested on: LOX IMVI
# HCC 2998 = tested on: HCC 2998
# RXF 393 = tested on: RXF 393
# K562 = tested on: K562
# MDA-MB-231 = tested on: MDA-MB-231
# SF-295 = tested on: SF-295
# EKVX = tested on: EKVX
# TK-10 = tested on: TK-10
# Malme-3M = tested on: Malme-3M
# HT-29 = tested on: HT-29
# U-251 = tested on: U-251
# SK-MEL-5 = tested on: SK-MEL-5
# SF-539 = tested on: SF-539
# NCI/ADR-RES = tested on: NCI/ADR-RES
# HL-60 = tested on: HL-60
# DU-145 = tested on: DU-145
# MCF7 = tested on: MCF7
# SR = tested on: SR
# HCT-15 = tested on: HCT-15
# SN12C = tested on: SN12C
# SNB-19 = tested on: SNB-19
# A549 = tested on: A549
# SNB-75 = tested on: SNB-75
# T47D = tested on: T47D
# M14 = tested on: M14
# MDA-N = tested on: MDA-N
# RPMI-8226 = tested on: RPMI-8226
# SK-OV-3 = tested on: SK-OV-3
# Hs-578T = tested on: Hs-578T
# HOP-92 = tested on: HOP-92
smiles,measurement,setting,value
Cc1nn(-c2cc(Cl)ccc2[N+](=O)[O-])c(C)c1Cl,GI50,HOP-62,> 100 µM (inactive)
same,GI50,SF-268,> 100 µM (inactive)
same,GI50,CCRF-CEM,37.5 µM (inactive)
same,GI50,OVCAR-4,> 100 µM (inactive)
same,GI50,786-0,> 100 µM (inactive)
same,GI50,CAKI-1,83.4 µM (inactive)
same,GI50,NCI-H226,65.8 µM (inactive)
same,GI50,PC-3,51.2 µM (inactive)
same,GI50,COLO 205,> 100 µM (inactive)
same,GI50,UACC-62,> 100 µM (inactive)
same,GI50,NCI-H522,> 100 µM (inactive)
same,GI50,HCT-116,53.8 µM (inactive)
same,GI50,SK-MEL-28,> 100 µM (inactive)
same,GI50,SW-620,> 100 µM (inactive)
same,GI50,NCI-H460,70.5 µM (inactive)
same,GI50,MOLT-4,13.6 µM (inactive)
same,GI50,UO-31,20.8 µM (inactive)
same,GI50,IGROV-1,> 100 µM (inactive)
same,GI50,NCI-H23,> 100 µM (inactive)
same,GI50,BT-549,42.5 µM (inactive)
same,GI50,SK-MEL-2,> 100 µM (inactive)
same,GI50,OVCAR-3,> 100 µM (inactive)
same,GI50,MDA-MB-435,> 100 µM (inactive)
same,GI50,KM12,> 100 µM (inactive)
same,GI50,OVCAR-8,> 100 µM (inactive)
same,GI50,UACC-257,> 100 µM (inactive)
same,GI50,OVCAR-5,> 100 µM (inactive)
same,GI50,ACHN,> 100 µM (inactive)
same,GI50,A498,> 100 µM (inactive)
same,GI50,LOX IMVI,> 100 µM (inactive)
same,GI50,HCC 2998,38.6 µM (inactive)
same,GI50,RXF 393,2.72 µM (inactive)
same,GI50,K562,20.3 µM (inactive)
same,GI50,MDA-MB-231,48 µM (inactive)
same,GI50,SF-295,> 100 µM (inactive)
same,GI50,EKVX,76 µM (inactive)
same,GI50,TK-10,> 100 µM (inactive)
same,GI50,Malme-3M,> 100 µM (inactive)
same,GI50,HT-29,> 100 µM (inactive)
same,GI50,U-251,> 100 µM (inactive)
same,GI50,SK-MEL-5,81.7 µM (inactive)
same,GI50,SF-539,> 100 µM (inactive)
same,GI50,NCI/ADR-RES,55.8 µM (inactive)
same,GI50,HL-60,91.8 µM (inactive)
same,GI50,DU-145,> 100 µM (inactive)
same,GI50,MCF7,> 100 µM (inactive)
same,GI50,SR,> 100 µM (inactive)
same,GI50,HCT-15,40.6 µM
same,GI50,SN12C,> 100 µM (inactive)
same,GI50,SNB-19,> 100 µM (inactive)
same,GI50,A549,71.1 µM (inactive)
same,GI50,SNB-75,86.5 µM (inactive)
same,GI50,T47D,38.2 µM (inactive)
same,GI50,M14,> 100 µM (inactive)
same,GI50,MDA-N,> 100 µM (inactive)
same,GI50,RPMI-8226,87.7 µM (inactive)
same,GI50,SK-OV-3,> 100 µM (inactive)
same,GI50,Hs-578T,> 100 µM (inactive)
CS(=O)(=O)NC12CCC(c3ccccc31)c1ccccc12,GI50,HOP-62,> 100 µM (inactive)
same,GI50,SF-268,> 100 µM (inactive)
same,GI50,CCRF-CEM,> 100 µM (inactive)
same,GI50,OVCAR-4,> 100 µM (inactive)
same,GI50,786-0,> 100 µM (inactive)
same,GI50,CAKI-1,> 100 µM (inactive)
same,GI50,NCI-H226,> 100 µM (inactive)
same,GI50,PC-3,> 100 µM (inactive)
same,GI50,COLO 205,> 100 µM (inactive)
same,GI50,UACC-62,> 100 µM (inactive)
same,GI50,NCI-H522,> 100 µM (inactive)
same,GI50,HCT-116,> 100 µM (inactive)
same,GI50,SK-MEL-28,> 100 µM (inactive)
same,GI50,SW-620,> 100 µM (inactive)
same,GI50,NCI-H460,> 100 µM (inactive)
same,GI50,MOLT-4,> 100 µM (inactive)
same,GI50,UO-31,> 100 µM (inactive)
same,GI50,IGROV-1,> 100 µM (inactive)
same,GI50,NCI-H23,> 100 µM (inactive)
same,GI50,BT-549,> 100 µM (inactive)
same,GI50,SK-MEL-2,> 100 µM (inactive)
same,GI50,OVCAR-3,> 100 µM (inactive)
same,GI50,MDA-MB-435,> 100 µM (inactive)
same,GI50,KM12,> 100 µM (inactive)
same,GI50,OVCAR-5,> 100 µM (inactive)
same,GI50,ACHN,> 100 µM (inactive)
same,GI50,A498,> 100 µM (inactive)
same,GI50,LOX IMVI,> 100 µM (inactive)
same,GI50,K562,> 100 µM (inactive)
same,GI50,MDA-MB-231,> 100 µM (inactive)
same,GI50,EKVX,> 100 µM (inactive)
same,GI50,TK-10,> 100 µM (inactive)
same,GI50,Malme-3M,> 100 µM (inactive)
same,GI50,HT-29,> 100 µM (inactive)
same,GI50,HOP-92,> 100 µM (inactive)
same,GI50,U-251,> 100 µM (inactive)
same,GI50,SK-MEL-5,> 100 µM (inactive)
same,GI50,SF-539,> 100 µM (inactive)
same,GI50,NCI/ADR-RES,> 100 µM (inactive)
same,GI50,HL-60,> 100 µM (inactive)
same,GI50,DU-145,> 100 µM (inactive)
same,GI50,MCF7,> 100 µM (inactive)
same,GI50,SR,> 100 µM (inactive)
same,GI50,HCT-15,> 100 µM
same,GI50,SN12C,> 100 µM (inactive)
same,GI50,SNB-19,> 100 µM (inactive)
same,GI50,A549,> 100 µM (inactive)
same,GI50,SNB-75,> 100 µM (inactive)
same,GI50,T47D,> 100 µM (inactive)
same,GI50,M14,> 100 µM (inactive)
same,GI50,MDA-N,> 100 µM (inactive)
same,GI50,RPMI-8226,> 100 µM (inactive)
same,GI50,SK-OV-3,> 100 µM (inactive)
same,GI50,Hs-578T,> 100 µM (inactive)
